Experimental data reported in patent publication US6867192B1, “Compounds useful in the treatment of inflammatory diseases” (priority 1998, dated 2005).

Each compound was assayed against T1, integrin VLA-4, expressed on the Jurkat J6 (human lymphoblast cell line) cell membrane with VCAM-1 (Homo sapiens, UniProt P05556+P13612) (assay: Jurkat J6/VCAM-1 adhesion assay). Conditions: Jurkat J6 cell adhesion to VCAM-1, 1 mM MnCl2; mean of n experiments.
T1 construct: integrin VLA-4, expressed on the Jurkat J6 (human lymphoblast cell line) cell membrane; endogenous in cells; host or cells: Jurkat J6 cells (integrin). zzVCAM-1 was made in house in Drosophila melanogaster S2 cells
Assay type: cell-based
Description: (1) Jurkat J6/VCAM-1 Adhesion Assay
This assay was used to investigate the interaction of the integrin VLA-4, expressed on the Jurkat J6 (human lymphoblast cell line) cell membrane with VCAM-1. Polystyrene 96-well microtitre plates were coated with human immunoglobulin G (IgG; Sigma Chemicals, UK, Product No. 14506) at a concentration of 0.05 mg ml^−1 in bicarbonate buffer (36 mM NaHCO3 and 22 mM Na2CO3, prepared in Dulbecco's phosphate buffered saline at pH 9.8 (PBS); Sigma Chemicals, UK, Product No. 14190-094) for 2 hours at 37° C. This solution was then aspirated and the plates were washed twice with PBS.
VCAM-1 was prepared by cloning its constituent seven domains into a Drosophila expression system with a zz (Protein A) tag. This zzVCAM-1 was then expressed from Drosophila melanogaster S2 cell culture, induced with copper. Protease inhibitors were added and the culture supernatant was clarified either by filtration through a 0.2 μm filter or by centrifugation. The zzVCAM-1 was then purified from this clarified medium using an IgG agarose column, equilibrated with either 20 mM sodium phosphate pH 7.2 alone or in the presence of 0.5M sodium chloride. Elution of zzVCAM-1 from the column was mediated using 3M ammonium thiocyanate, which was subsequently removed using a G25 desalting column, equilibrated with 20 mM sodium phosphate, pH 7.2. The purified zzVCAM-1 was then concentrated to a small volume (Amicon stirred cell concentrators) until a concentration of 62.5 ng ml^−1 was obtained, calculated using the extinction coefficient value.
This solution of zzVCAM-1 was then incubated overnight at 4° C. in the IgG coated microtitre plates with 3% bovine serum albumin (BSA) in PBS, followed by aspiration and two further washes with PBS. A concentration of the Jurkat J6 cells (6×10^6 cels ml^−1), grown in cell media RPMI 1640 (HyClone Ltd, Product No. B-9106-L) supplemented with 10% heat inactivated fetal calf serum (FCS; Gibco BRL, Product No. 10099-075) and 2 mM L-glutamine, were labelled with 10 μM of the fluorescent dye, 2′, 7′-bis(2-carboxyethyl)-5-(e6)-carboxyfluorescein acetoxymethyl ester (BCECF-AM; Molecular Probes Inc, Product No. B-1150) at 37° C. for 10 minutes. The excess dye was then removed by centrifugation at 500×g for 5 minutes and the cells were resuspended at a concentration of 1.2×10^7 cells ml^−1 in Hank's balanced salt solution (HBSS; Gibco BRL, Product No. 14190-094).
Equal volumes of compounds (dissolved in an appropriate solvent and diluted in HBSS containing 1 mM MnCl2) and the labelled Jurkat J6 cells, were added to the VCAM-1 coated plates and adhesion was allowed to proceed for 30 minutes at 37° C. Non, or loosely adhered cells, were removed by inversion of the plate and blotted with tissue paper. Two washes with PBS and further blotting were then performed, before the addition of 2% detergent (Triton-X®; Sigma Chemicals UK, Product No. X100). Counting was undertaken in a Wallac Viktor™ Fluorimeter, where low fluorescence values were indicative of compounds which had inhibited adhesion. All samples were assayed in singlicate and the following four parameter curve fit, shown by Equation (I) was applied: [formula]
Where a is the minimum, b is the Hill slope, c is the IC50 and d is the maximum. (Maximum and minimum values are those compared to adhesion in the absence of compound and in the presence of the dipotassium salt of 2 mM EDTA; Sigma Chemicals, UK, Product No. ED2P). Data is presented as the mean pIC50 with the standard error of the mean of n experiments.

T1 sequence (P13612 34-1032): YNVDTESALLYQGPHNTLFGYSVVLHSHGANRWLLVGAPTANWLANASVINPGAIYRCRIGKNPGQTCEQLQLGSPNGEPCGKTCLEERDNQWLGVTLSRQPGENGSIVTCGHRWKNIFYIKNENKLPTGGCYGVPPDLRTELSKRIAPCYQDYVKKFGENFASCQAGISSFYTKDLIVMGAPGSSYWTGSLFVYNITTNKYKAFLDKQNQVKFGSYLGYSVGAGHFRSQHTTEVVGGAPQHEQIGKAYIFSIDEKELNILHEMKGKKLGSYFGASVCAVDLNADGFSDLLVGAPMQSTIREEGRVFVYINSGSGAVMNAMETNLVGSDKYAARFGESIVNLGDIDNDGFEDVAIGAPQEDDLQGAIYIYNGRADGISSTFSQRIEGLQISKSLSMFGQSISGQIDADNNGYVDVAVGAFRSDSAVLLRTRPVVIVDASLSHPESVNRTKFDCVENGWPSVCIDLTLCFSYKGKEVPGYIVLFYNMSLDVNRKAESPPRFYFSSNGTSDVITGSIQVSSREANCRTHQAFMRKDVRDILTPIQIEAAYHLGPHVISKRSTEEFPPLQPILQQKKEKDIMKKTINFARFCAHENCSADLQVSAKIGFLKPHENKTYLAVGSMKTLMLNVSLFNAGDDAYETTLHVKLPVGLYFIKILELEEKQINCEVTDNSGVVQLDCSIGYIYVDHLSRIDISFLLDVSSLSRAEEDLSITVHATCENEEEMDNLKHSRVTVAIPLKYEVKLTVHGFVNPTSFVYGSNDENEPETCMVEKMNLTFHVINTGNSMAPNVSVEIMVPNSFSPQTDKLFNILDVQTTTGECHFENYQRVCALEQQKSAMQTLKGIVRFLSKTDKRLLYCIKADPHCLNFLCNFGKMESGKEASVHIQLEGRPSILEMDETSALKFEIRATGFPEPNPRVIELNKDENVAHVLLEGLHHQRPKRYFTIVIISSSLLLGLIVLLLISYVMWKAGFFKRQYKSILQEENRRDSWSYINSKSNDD
T1 sequence (P05556 21-798): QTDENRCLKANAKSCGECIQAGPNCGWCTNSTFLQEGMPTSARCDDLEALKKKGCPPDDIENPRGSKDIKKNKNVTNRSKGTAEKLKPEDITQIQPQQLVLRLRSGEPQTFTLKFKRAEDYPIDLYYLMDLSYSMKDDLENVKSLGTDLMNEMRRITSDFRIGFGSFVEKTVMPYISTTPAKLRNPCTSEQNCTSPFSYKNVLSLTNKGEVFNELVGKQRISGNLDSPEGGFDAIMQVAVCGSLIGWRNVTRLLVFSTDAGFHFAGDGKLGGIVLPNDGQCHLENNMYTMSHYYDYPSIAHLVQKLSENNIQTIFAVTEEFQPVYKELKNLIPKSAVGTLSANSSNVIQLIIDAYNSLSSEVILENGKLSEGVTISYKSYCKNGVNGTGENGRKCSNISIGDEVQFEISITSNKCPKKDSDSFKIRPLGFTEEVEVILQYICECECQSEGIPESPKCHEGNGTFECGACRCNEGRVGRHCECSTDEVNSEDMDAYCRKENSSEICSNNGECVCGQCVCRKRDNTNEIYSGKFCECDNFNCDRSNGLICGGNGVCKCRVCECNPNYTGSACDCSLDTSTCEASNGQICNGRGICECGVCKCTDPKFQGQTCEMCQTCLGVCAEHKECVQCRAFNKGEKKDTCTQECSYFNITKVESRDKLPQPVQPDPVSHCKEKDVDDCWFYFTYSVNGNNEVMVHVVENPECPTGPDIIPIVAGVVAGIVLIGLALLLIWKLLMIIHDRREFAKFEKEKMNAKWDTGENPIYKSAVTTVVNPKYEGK

IC50 [nM]	SMILES
13.2	CC(C)C[C@H](NC(=O)COc1ccccc1C(=O)c1ccccc1)C(=O)N[C@@H](Cc1ccc(OC(=O)N2CCC(NC(=O)Cc3ccccc3)CC2)cc1)C(=O)O [Example 1, (2S)-2-[((2S)-2-{[2-(2-Benzoylphenoxy)acetyl]amino}-4-methylpentanoyl)amino]-3-{4-[({4-[(2-phenylacetyl)amino]-1-piperidinyl}carbonyl)oxy]phenyl}propanoic acid]
9.33	CC(C)C[C@H](NC(=O)COc1cc2ccccc2cc1C(=O)N1CCCCC1)C(=O)N[C@@H](Cc1ccc(OC(=O)N2CCC(NC(=O)Cc3ccccc3)CC2)cc1)C(=O)O [Example 2, (2S)-2-({(2S)-4-Methyl-2-[(2-{[3-(1-piperidinylcarbonyl)-2-naphthyl]oxy}acetyl)amino]pentanoyl}amino)-3-{4-[({4-[(2-phenylacetyl)amino]-1-piperidinyl}carbonyl)oxy]phenyl}propanoic acid]
41.7	CC(C)C[C@H](NC(=O)COc1ccc(C(=O)N2CCCCC2)cc1)C(=O)N[C@@H](Cc1ccc(OC(=O)N2CCC(NC(=O)C(C3CCCCC3)C3CCCCC3)CC2)cc1)C(=O)O [Example 3, (2S)-3-{4-[({4-[(2,2-Dicyclohexylacetyl)amino]-1-piperidinyl}carbonyl)oxy]phenyl}-2-{[(2S)-4-methyl-2-({2-[4-(1-piperidinylcarbonyl)phenoxy]acetyl}amino)pentanoyl]amino}propanoic acid]
16.6	CC(C)C[C@H](NC(=O)COc1ccc(C(=O)N2CCCCC2)cc1)C(=O)N[C@@H](Cc1ccc(OC(=O)N2CCOCC2)cc1)C(=O)O [Example 4, (2S)-2-{[(2S)-4-Methyl-2-({2-[4-(1-piperidinylcarbonyl)phenoxy]acetyl}amino)pentanoyl]amino}-3-{4-[(4-morpholinylcarbonyl)oxy]phenyl}propanoic acid]
7.76	CC(C)C[C@H](NC(=O)COc1ccc(C(=O)N2CCCCC2)cc1)C(=O)N[C@@H](Cc1ccc(OC(=O)N2CCC(C(N)=O)CC2)cc1)C(=O)O [Example 5, (2S)-3-[4-({[4-(Aminocarbonyl)-1-piperidinyl]carbonyl}oxy)phenyl]-2-{[(2S)-4-methyl-2-({2-[4-(1-piperidinylcarbonyl)phenoxy]acetyl}amino)pentanoyl]amino}propanoic acid]
5.62	CC(C)C[C@H](NC(=O)COc1ccccc1C(=O)c1ccccc1)C(=O)N[C@@H](Cc1ccc(OC(=O)N2CCC(C(N)=O)CC2)cc1)C(=O)O [Example 6, (2S)-3-[4-({[4-(Aminocarbonyl)-1-piperidinyl]carbonyl}oxy)phenyl]-2-[((2S)-2-{[2-(2-benzoylphenoxy)acetyl]amino}-4-methylpentanoyl)amino]propanoic acid]
2.63	CC(C)C[C@H](NC(=O)COc1ccc(C(N)=O)cc1)C(=O)N[C@@H](Cc1ccc(OC(=O)N2CCC(C(N)=O)CC2)cc1)C(=O)O [Example 7, (2S)-2-{[(2S)-2-({2-[4-(Aminocarbonyl)phenoxy]acetyl}amino)-4-methylpentanoyl]amino}-3-[4-({[4-(aminocarbonyl)-1-piperidinyl]carbonyl}oxy)phenyl]propanoic acid]
42.7	CC(C)C[C@H](NC(=O)COc1ccccc1I)C(=O)N[C@@H](Cc1ccc(OC(=O)N2CCC(NC(=O)CC3CCCCC3)CC2)cc1)C(=O)O [Example 8, (2S)-3-{4-[({4-[(2-Cyclohexylacetyl)amino]-1-piperidinyl}carbonyl)oxy]phenyl}-2-[((2S)-2-{[2-(2-iodophenoxy)acetyl]amino}-4-methylpentanoyl)amino]propanoic acid]
26.3	CC(C)C[C@H](NC(=O)COc1ccccc1I)C(=O)N[C@@H](Cc1ccc(OC(=O)N2CCC(NC(=O)C(C3CCCCC3)C3CCCCC3)CC2)cc1)C(=O)O [Example 9, (2S)-3-{4-[({4-[(2,2-Dicyclohexylacetyl)amino]-1-piperidinyl}carbonyl)oxy]phenyl}-2-[((2S)-2-{[2-(2-iodophenoxy)acetyl]amino}-4-methylpentanoyl)amino]propanoic acid]
